Assay results taken from patent publication US20130011480A1, “CYTOTOXIC THERAPY BY PROTON FLUX MODULATION” (priority 2011, published 2013).
Structures can show the parent of a compound that is named as a salt. Where two headings read alike, the source gives them in different places.

Experiments:
hepatoblastoma cells = conditions: morphological observations and flow cytometry; cited from earlier work
[1] = system: normal human hepatic cells; conditions: treated versus untreated cells; cited from earlier work
[2] = system: Na+-independent Cl−/HCO3− exchange; conditions: cited from earlier work
[3] = raises metabolic rate and promotes weight loss; cited from earlier work
NHE1 = NHE1 (Homo sapiens, UniProt P19634); conditions: NHE1 inhibition; cited from earlier work
Sequence of NHE1 (P19634 whole entry, species assumed): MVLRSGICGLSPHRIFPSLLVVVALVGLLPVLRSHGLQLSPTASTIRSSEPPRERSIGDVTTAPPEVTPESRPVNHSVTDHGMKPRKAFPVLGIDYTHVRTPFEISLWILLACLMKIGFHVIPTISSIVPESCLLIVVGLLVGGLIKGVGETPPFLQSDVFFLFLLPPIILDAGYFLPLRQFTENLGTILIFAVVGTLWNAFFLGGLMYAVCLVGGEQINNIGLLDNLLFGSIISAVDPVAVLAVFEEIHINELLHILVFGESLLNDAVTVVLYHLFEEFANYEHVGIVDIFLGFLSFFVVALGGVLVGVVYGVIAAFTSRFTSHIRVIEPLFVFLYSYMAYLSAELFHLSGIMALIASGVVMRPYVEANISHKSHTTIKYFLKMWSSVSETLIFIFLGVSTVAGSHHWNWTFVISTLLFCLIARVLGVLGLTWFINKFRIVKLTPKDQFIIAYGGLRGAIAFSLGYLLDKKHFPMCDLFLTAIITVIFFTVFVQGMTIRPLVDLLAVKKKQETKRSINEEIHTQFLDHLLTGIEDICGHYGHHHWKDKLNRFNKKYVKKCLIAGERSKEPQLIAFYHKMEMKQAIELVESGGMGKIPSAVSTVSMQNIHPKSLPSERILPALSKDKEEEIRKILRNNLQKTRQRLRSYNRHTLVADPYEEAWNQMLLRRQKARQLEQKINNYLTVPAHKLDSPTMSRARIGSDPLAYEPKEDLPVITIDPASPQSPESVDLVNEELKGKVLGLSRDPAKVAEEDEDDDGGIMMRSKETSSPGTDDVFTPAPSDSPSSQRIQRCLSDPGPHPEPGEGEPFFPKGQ

N-type Ca2+ channel = molecular target: T1, N-type Ca2+ channel (Homo sapiens, UniProt Q00975); conditions: calculated for 50 μM; cited from earlier work
T1 construct: N-type Ca2+ channels of hippocampal CA1 neurons; host or cells: hippocampal CA1 neurons
T1 sequence (Q00975 whole entry): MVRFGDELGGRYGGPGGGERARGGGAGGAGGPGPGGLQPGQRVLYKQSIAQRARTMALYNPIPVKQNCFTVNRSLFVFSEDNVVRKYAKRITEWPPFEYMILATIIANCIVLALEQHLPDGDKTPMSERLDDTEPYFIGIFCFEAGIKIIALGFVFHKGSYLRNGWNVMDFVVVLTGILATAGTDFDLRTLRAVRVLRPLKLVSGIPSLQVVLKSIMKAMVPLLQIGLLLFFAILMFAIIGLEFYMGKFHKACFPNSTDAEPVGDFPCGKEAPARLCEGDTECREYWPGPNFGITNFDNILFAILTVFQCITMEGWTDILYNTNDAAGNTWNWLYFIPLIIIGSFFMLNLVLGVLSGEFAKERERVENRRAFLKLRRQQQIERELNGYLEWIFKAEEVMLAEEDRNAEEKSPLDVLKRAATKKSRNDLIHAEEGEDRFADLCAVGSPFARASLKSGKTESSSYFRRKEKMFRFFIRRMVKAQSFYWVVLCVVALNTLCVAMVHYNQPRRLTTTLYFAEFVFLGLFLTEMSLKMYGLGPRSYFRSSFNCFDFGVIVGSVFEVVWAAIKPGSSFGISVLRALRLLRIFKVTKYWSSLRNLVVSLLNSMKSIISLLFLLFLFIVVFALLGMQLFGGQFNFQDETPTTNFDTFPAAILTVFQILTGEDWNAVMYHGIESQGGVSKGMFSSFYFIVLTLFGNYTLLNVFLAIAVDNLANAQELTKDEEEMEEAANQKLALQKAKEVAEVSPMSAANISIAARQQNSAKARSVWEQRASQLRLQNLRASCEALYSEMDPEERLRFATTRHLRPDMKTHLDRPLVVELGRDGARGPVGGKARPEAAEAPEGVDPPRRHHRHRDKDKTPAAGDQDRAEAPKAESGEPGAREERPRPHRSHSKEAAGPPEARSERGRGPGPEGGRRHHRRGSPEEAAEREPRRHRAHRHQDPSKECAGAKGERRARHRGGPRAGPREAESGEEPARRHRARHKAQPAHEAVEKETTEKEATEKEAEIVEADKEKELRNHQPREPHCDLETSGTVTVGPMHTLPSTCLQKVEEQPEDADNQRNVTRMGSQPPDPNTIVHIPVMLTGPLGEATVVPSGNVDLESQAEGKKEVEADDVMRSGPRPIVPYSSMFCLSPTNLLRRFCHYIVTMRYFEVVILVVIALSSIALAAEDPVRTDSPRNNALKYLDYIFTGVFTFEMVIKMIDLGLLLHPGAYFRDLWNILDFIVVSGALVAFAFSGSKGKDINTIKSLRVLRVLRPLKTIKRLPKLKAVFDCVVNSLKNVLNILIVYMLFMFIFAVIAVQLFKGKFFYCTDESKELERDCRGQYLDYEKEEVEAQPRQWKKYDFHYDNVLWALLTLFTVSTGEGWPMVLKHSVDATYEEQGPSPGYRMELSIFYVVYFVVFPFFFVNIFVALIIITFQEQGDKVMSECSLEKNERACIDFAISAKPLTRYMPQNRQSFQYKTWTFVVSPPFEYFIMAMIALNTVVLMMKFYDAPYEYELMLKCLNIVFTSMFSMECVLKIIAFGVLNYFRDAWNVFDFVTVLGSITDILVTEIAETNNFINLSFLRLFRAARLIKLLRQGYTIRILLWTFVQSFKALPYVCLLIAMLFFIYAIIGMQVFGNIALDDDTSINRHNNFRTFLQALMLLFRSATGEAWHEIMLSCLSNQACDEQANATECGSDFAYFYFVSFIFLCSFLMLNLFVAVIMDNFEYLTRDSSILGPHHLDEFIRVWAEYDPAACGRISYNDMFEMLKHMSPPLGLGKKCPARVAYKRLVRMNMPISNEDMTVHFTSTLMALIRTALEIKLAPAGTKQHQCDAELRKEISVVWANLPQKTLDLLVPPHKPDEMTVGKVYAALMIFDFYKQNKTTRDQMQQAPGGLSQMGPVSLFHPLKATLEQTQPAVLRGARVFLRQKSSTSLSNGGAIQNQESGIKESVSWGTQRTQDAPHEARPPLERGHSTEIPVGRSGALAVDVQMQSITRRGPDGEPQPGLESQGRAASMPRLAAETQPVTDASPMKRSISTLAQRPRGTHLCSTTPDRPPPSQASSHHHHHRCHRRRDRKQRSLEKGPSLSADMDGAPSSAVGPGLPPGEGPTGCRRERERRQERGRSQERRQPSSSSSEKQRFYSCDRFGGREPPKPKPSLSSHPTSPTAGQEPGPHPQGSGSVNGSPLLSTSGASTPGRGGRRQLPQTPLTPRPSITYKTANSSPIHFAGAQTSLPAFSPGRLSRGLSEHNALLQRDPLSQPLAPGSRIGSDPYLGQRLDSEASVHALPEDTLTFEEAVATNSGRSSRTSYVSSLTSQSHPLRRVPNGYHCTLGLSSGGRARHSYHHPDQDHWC

CA3 neurons [4] = conditions: 50 μM; CO2/HCO3−-buffered; cited from earlier work
K+ channels = conditions: 100-500 μM; cited from earlier work
[5] = system: high-voltage-activated Ca2+ channels; conditions: hippocampal CA1 neurons; cited from earlier work
CA3 neurons [6] = conditions: cited from earlier work
[7] = Cancer patients treated orally with acid-efflux inhibitor combinations: side effects; assay type: in vivo, human
Description: Patients have been treated orally with a combination of drugs that inhibit the efflux of acid (H+, CO2, and/or lactic acid). Although these drugs tend to alkalinize the extracellular milieu of cancer cells, they may be administered in combinations that achieve a metabolic acidosis.
Esomeprazole (vacuolar H+ ATPase pump inhibitor) was used either daily or every other day, with a dose ranging from 240 mg per day up to 320 mg per day, or more.
Methazolamide (a carbonic anhydrase inhibitor) was used every other day with a dose ranging from 50 mg per day up to a maximum of 400 mg per day. […] Side effects were especially noticeable in a patient with elevated liver function tests due to metastatic disease to the liver.
Amiloride (Na−H+ exchanger inhibitor and an inhibitor of urokinase plasminogen activator) was used daily at a dose of 20 mg per day, or more. Because amiloride is a potassium-sparing diuretic, with a propensity to cause hyperkalemia, HCTZ, at 25 mg 2 times per day was administered as well. In addition, the use of amiloride in combination with HCTZ has shown to inhibit metastases more effectively than when amiloride is used alone.
NaHCO3 (Arm & Hammer Baking Soda) was used daily, in some cases, at a dose ranging from 5 grams to 30 grams per day, or more.
Intravenous lactate and/or glucose (with or without insulin) are useful for potentiating this therapy. […]

proton pump = proton pump (Homo sapiens, UniProt P20648); conditions: compared with classical PPIs; cited from earlier work
Sequence of proton pump (P20648 whole entry): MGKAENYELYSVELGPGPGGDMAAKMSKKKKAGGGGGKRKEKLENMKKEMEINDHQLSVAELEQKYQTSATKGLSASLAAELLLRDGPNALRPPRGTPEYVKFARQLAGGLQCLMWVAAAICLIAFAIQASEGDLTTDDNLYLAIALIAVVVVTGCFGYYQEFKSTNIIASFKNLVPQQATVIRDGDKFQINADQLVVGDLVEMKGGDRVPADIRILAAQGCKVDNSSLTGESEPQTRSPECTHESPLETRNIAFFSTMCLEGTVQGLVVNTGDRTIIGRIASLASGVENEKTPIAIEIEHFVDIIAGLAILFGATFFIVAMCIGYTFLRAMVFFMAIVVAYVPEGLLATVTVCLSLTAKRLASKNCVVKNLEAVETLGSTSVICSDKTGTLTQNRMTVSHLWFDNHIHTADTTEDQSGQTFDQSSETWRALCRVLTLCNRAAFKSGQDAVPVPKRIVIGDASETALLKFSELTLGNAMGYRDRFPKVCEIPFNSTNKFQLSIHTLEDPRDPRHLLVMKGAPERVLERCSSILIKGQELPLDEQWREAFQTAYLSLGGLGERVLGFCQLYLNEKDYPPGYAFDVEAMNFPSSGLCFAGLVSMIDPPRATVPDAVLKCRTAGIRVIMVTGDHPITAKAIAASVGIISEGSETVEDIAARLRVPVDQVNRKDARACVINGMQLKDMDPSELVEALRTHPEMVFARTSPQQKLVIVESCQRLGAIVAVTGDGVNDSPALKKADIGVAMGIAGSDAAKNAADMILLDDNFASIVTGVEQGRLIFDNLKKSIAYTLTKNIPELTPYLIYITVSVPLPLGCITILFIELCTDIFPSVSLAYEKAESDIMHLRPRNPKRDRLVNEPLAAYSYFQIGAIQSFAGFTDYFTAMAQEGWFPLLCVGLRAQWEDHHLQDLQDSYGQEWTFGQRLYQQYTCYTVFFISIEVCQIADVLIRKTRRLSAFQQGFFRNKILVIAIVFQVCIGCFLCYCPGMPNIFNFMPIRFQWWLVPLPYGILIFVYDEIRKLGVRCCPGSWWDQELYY
Sequence of proton pump (P51164 whole entry partner): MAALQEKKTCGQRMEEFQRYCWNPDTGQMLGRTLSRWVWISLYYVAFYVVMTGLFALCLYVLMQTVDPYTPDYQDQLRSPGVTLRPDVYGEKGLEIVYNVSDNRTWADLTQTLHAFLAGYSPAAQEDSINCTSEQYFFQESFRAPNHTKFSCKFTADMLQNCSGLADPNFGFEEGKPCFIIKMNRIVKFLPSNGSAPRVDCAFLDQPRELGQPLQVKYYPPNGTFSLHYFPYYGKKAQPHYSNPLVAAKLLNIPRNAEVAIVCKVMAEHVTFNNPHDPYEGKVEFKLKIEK

[8] = as low as; dose dependent; cited from earlier work
[9] = system: isolated normal rat hepatocyte; conditions: 72 hours' treatment; read-out: 50% inhibitory concentrations (IC(50)); cited from earlier work
[10] = system: subcutaneous xenografted Huh-7 cells; conditions: 1 or 10 mg/kg/d subcutaneously, 2 weeks, cited from earlier work
Huh-7 cells = conditions: cited from earlier work
human melanoma [11] = conditions: well-tolerated doses; cited from earlier work
human melanoma [12] = conditions: preadministration; cited from earlier work
human breast cancer = conditions: chronic oral administration; cited from earlier work

## CO/C1=C\C(C)=C\[C@@H](C)[C@@H](O)[C@@H](C)C/C(C)=C/C=C/[C@H](OC)[C@@H]([C@@H](C)[C@@H](O)[C@H](C)[C@@]2(O)C[C@@H](O)[C@H](C)[C@@H](C(C)C)O2)OC1=O [Baf-A1, Bafilomycin A1]
Hepatoblastoma cells
  cellular reproduction and apoptosis: inhibits hepatoblastoma cellular reproduction by inducing apoptosis
[1]
  inhibition of cell growth: negligible

## O=S(=O)(O)c1cc(N=C=S)ccc1C=Cc1ccc(N=C=S)cc1S(=O)(=O)O [DIDS, 4,4′-diisothiocyanato-stilbene-2,2′-disulfonic acid]
[2]; 500 μM, pretreatment 15 min, n=3
  alkalinization upon removal of extracellular Cl−: completely abolished

## O=[N+]([O-])c1ccc(O)c([N+](=O)[O-])c1 [DNP, dinitrophenol]
[3]
  reasonably well tolerated daily dose: 3 to 5 mg/kg

## CCN(c1nc(N)c(C(=O)N=C(N)N)nc1Cl)C(C)C [EIPA, 5-(N-ethyl-N-isopropyl)-amiloride]
NHE1
  potency relative to amiloride: about 200 times

## CC[C@@H](C(N)=O)N1CCCC1=O [LEV, levetiracetam]
N-type Ca2+ channel
  reduction of N-type Ca2+ channel currents: ca. 15%
CA3 neurons [4]
  steady-state pHi after preincubation: 6.82
K+ channels
  inhibition of K+ channels: less than 20%
[5]
  reduction of high-voltage-activated calcium currents: about 20%
[2]; 50, preincubation 15 min, n=5
  alkalinization upon removal of extracellular Cl−: no effect
CA3 neurons [6]; 1 μM (n=4)
  effect on pHi: without any effect
CA3 neurons [6]; 10 μM (n=3)
  effect on steady-state pHi: Small shifts
CA3 neurons [6]; 50 μM, Na+-free CO2/HCO3−-buffered solution, n=5
  steady-state pHi: not likely further influenced
CA3 neurons [6]; 50 μM, neuronal somata, CO2/HCO3−-buffered solution, n=8
  mean acidification of steady-state pHi, nonresponding neurons excluded: 0.19±0.07 pH units
CA3 neurons [6]; 50 μM, neuronal somata, CO2/HCO3−-buffered solution, n=11
  mean acidification of steady-state pHi: 0.14±0.09 pH units
CA3 neurons [6]; 50 μM, nominal absence of extracellular CO2/HCO3−, HEPES pH 7.4, n=5
  decrease of pHi: abolished
CA3 neurons [6]; 50 μM, stratum pyramidale, CO2/HCO3−-buffered solution, n=5
  decrease of pHi of larger regions: 0.11±0.04 pH units
CA3 neurons [6]; increase to 100 μM (n=4)
  effect on pHi: without additional effect

## CC(=O)/N=c1/sc(S(N)(=O)=O)nn1C [Methazolamide]
[7]; every other day, 50 mg per day up to 400 mg per day
  side effects: tingling in extremities, acidosis, fatigue, and nausea

## COCCO[C@@H]1c2ccn3c(C)c(C)nc3c2N[C@H](c2ccccc2)[C@H]1O [Soraprazan]
Proton pump
  time to block H+ secretion: within a half-hour

## N=C(N)NC(=O)c1nc(Cl)c(N)nc1N [amiloride]
[8]
  doses found effective: ≥ 0.3 mg/kg body weight per day

## COC1=CC(c2ccc[nH]2)=N/C1=C\c1[nH]c(C)c2c1C(C)CCC2 (stereo not drawn) [cPrG-HCl, Cycloprodigiosin hydrochloride]
[9]
  IC50: 8.4 µM
[10]
  pathological changes in organs: No pathological changes were observed in any organs
  serum alanine transaminase levels: remained within normal limits
[10]; compared with the control after 8 days
  tumor growth: significantly inhibited tumor growth
Huh-7 cells; lowered pHi
  pHi: < 6.8
Huh-7 cells; subG(1) population, DNA fragmentation, chromatin condensation
  apoptosis: induced apoptosis

## COc1ccc2nc([S@@+]([O-])Cc3ncc(C)c(OC)c3C)[nH]c2c1 [esomeprazole, Esomeprazole]
Human melanoma [11]
  tumor growth and survival: markedly impede tumor growth and prolong survival

## COc1ccc2[nH]c([S+]([O-])Cc3ncc(C)c(OC)c3C)nc2c1 (stereo not drawn) [omeprazole]
Human melanoma [12]
  growth-retardant impact of cisplatin: potentiate the growth-retardant impact of cisplatin

## Cc1nc(Nc2ccc(F)cc2)nc(N2CCc3ccccc3C2C)c1C (stereo not drawn) [revaprazan]
Proton pump
  time to block H+ secretion: within a half-hour

## O=C([O-])O.[Na+] [sodium bicarbonate]
Human breast cancer
  expansion of primary tumors: not influencing the expansion of primary tumors
  metastases in lung, visceral organs, and lymph nodes: markedly reduces the number and size of metastases
[7]; daily, 5 grams to 30 grams per day
  side effects: bloating and abdominal discomfort
